Measurements published in patent publication US20040171566A1, “Antisense modulation of p38 mitogen activated protein kinase expression” (priority 1999, published 2004).
In the oligonucleotide strings, read from the 5' end, every base follows the letter of its sugar. An asterisk marks phosphorothioate; unmarked linkages are phosphodiester. Other units and linkages are bracketed, terminal groups are in braces. A string of capitals states the bases alone. e = 2'-O-(2-methoxyethyl) (MOE); [5mC] = 5-methylcytosine; d = 2'-deoxy (DNA)

How the values were obtained:
human p38β mRNA = assay: Human p38β mRNA expression in T-24 cells; settings: initial screen of human p38α oligonucleotides
human p38α mRNA [1] = assay: Human p38α mRNA expression in T-24 cells; settings: initial screen of human p38α oligonucleotides
human p38α mRNA [2] = assay: Inhibition of human p38α mRNA expression in Jurkat cells, Northern blot; type: cell-based
Method: The human Jurkat T-cell line (American Type Culture Collection, Manassas, Va.) was maintained in RPMI 1640 growth media supplemented with 10% fetal bovine serum (FBS; Hyclone, Logan, Utah). HUVEC cells (Clonetics, San Diego, Calif.) were cultivated in endothelial basal media supplemented with 10% FBS (Hyclone, Logan, Utah).
Jurkat cells were grown to approximately 75% confluency and resuspended in culture media at a density of 1×10^7 cells/ml. A total of 3.6×10^6 cells were employed for each treatment by combining 360 μl of cell suspension with oligonucleotide at the indicated concentrations to reach a final volume of 400 μl. Cells were then transferred to an electroporation cuvette and electroporated using an Electrocell Manipulator 600 instrument (Biotechnologies and Experimental Research, Inc.) employing 150 V, 1000 μF, at 13 Ω. Electroporated cells were then transferred to conical tubes containing 5 ml of culture media, mixed by inversion, and plated onto 10 cm culture dishes.
Total mRNA was isolated using the RNEASY7 Mini Kit (Qiagen, Valencia, Calif.; similar kits from other manufacturers may also be used), separated on a 1% agarose gel, transferred to HYBOND™-N+ membrane (Amersham Pharmacia Biotech, Piscataway, N.J.), a positively charged nylon membrane, and probed. p38 MAPK probes were made using the Prime-A-Gene7 kit (Promega Corporation, Madison, Wis.), a random primer labeling kit, using mouse p38α or p38β cDNA as a template. A glyceraldehyde 3-phosphate dehydrogenase (G3PDH) probe was purchased from Clontech (Palo Alto, Calif.), Catalog Number 9805-1. The fragments were purified from low-melting temperature agarose, as described in Maniatis, T., et al., Molecular Cloning: A Laboratory Manual, 1989. The G3PDH probe was labeled with REDIVUE™ ^32P-dCTP (Amersham Pharmacia Biotech, Piscataway, N.J.) and Strip-EZ labelling kit (Ambion, Austin, Tex.). mRNA was quantitated by a PhosphoImager (Molecular Dynamics, Sunnyvale, Calif.).
Jurkat cells were grown and treated as described above except the concentration of oligonucleotide was varied as indicated in Table 3. […] Maximum inhibition was approximately 70% with 16500 (SEQ ID NO 17).

[3] = Jurkat cells electroporated with 10 μM oligonucleotide, Northern blot

With “CTCACAGTCTTCATTCACAG (chimeric deoxy gapped, phosphorothioate, further chemistry not given here) [ISIS 100867]” the “% P38β mRNA EXPRESSION” value (human p38β mRNA) was 33% and the “% P38α mRNA EXPRESSION” value (human p38α mRNA [1]) was 58%.
In the case of “CTGAGACATTTTCCAGCGGC (phosphorothioate gapmer, further chemistry not given here) [ISIS 100860]”, the “% P38β mRNA EXPRESSION” value (human p38β mRNA) is reported as 71% and the “% P38α mRNA EXPRESSION” value (human p38α mRNA [1]) is reported as 73%.
For “CTGCCGGTAGAACGTGGGCC (antisense e[5mC]*eT*eG*e[5mC]*e[5mC]*eG*dG*dT*dA*dG*dA*dA*dC*dG*eT*eG*eG*eG*e[5mC]*e[5mC]) [ISIS 16495]”, the “% mRNA EXPRESSION” value (human p38α mRNA [2]; [3]) was 72% and the “% mRNA Inhibition” value (human p38α mRNA [2]; [3]) was 28%.
With “CTTCCACCATGGAGGAAATC (antisense e[5mC]*eT*eT*e[5mC]*e[5mC]*eA*dC*dC*dA*dT*dG*dG*dA*dG*eG*eA*eA*eA*eT*e[5mC]) [ISIS 16504]” the “% mRNA EXPRESSION” value (human p38α mRNA [2]; [3]) was 72% and the “% mRNA Inhibition” value (human p38α mRNA [2]; [3]) was 28%.
“GAAGTGGGATCAACAGAACA (eG*eA*eA*eG*eT*eG*dG*dG*dA*dT*dC*dA*dA*dC*eA*eG*eA*eA*e[5mC]*eA; antisense) [ISIS 16501]” was tested, and the “% mRNA EXPRESSION” value (human p38α mRNA [2]; [3]) was 77% and the “% mRNA Inhibition” value (human p38α mRNA [2]; [3]) was 23%.
In the case of “GCAACAAGAGGCACTTGAAT (eG*e[5mC]*eA*eA*e[5mC]*dA*dA*dG*dA*dG*dG*d[5mC]*dA*d[5mC]*dT*eT*eG*eA*eA*eT; antisense) [ISIS 100877]”, the “% P38β mRNA EXPRESSION” value (human p38β mRNA) is reported as 95% and the “% P38α mRNA EXPRESSION” value (human p38α mRNA [1]) is reported as 47%.
In the case of “GGTCTCGGGCGACCTCTCCT (antisense eG*eG*eT*e[5mC]*eT*e[5mC]*dG*dG*dG*dC*dG*dA*dC*dC*eT*e[5mC]*eT*e[5mC]*e[5mC]*eT) [ISIS 16491]”, the “% mRNA EXPRESSION” value (human p38α mRNA [2]; [3]) is reported as 148%.
With “GTAAGCTTCTGACATTTCAC (antisense eG*eT*eA*eA*eG*e[5mC]*dT*dT*dC*dT*dG*dA*dC*dA*eT*eT*eT*e[5mC]*eA*e[5mC]) [ISIS 16496]” the “% mRNA EXPRESSION” value (human p38α mRNA [2]; [3]) was 61%, the “% mRNA EXPRESSION” value (human p38α mRNA [2]; Jurkat cells, dose 2.5 nM) was 94% and the “% mRNA Inhibition” value (human p38α mRNA [2]; Jurkat cells, dose 2.5 nM) was 6%. For the same sequence, the “% mRNA EXPRESSION” value (human p38α mRNA [2]; Jurkat cells, dose 5 nM) was 74%, the “% mRNA Inhibition” value (human p38α mRNA [2]; Jurkat cells, dose 5 nM) was 26% and the “% mRNA EXPRESSION” value (human p38α mRNA [2]; Jurkat cells, dose 10 nM) was 47%. For the same sequence, the “% mRNA Inhibition” value (human p38α mRNA [2]; Jurkat cells, dose 10 nM) was 53%, the “% mRNA EXPRESSION” value (human p38α mRNA [2]; Jurkat cells, dose 20 nM) was 41% and the “% mRNA Inhibition” value (human p38α mRNA [2]; Jurkat cells, dose 20 nM) was 59%.
With GTGGAGGCCAGTCCCCGGGA [ISIS 16487] the “% mRNA EXPRESSION” value (human p38α mRNA [2]; [3]) was 171%.
“TAAGGAGGTCCCTGCTTTCA (antisense eT*eA*eA*eG*eG*eA*dG*dG*dT*dC*dC*dC*dT*dG*e[5mC]*eT*eT*eT*e[5mC]*eA) [ISIS 16499]” was tested, and the “% mRNA EXPRESSION” value (human p38α mRNA [2]; [3]) was 74% and the “% mRNA Inhibition” value (human p38α mRNA [2]; [3]) was 26%.
With “TATGGTCTGTACCAGGAAAC (chimeric deoxy gapped, phosphorothioate, further chemistry not given here) [ISIS 100870]” the “% P38α mRNA EXPRESSION” value (human p38α mRNA [1]) was 51%.
“TCCTGAGACATTTTCCAGCG (antisense eT*e[5mC]*e[5mC]*eT*eG*eA*dG*dA*dC*dA*dT*dT*dT*dT*e[5mC]*e[5mC]*eA*eG*e[5mC]*eG) [ISIS 16494]” was tested, and the “% mRNA EXPRESSION” value (human p38α mRNA [2]; [3]) was 72% and the “% mRNA Inhibition” value (human p38α mRNA [2]; [3]) was 28%.
“TGAAAAGGCCTTCCCCTCAC (antisense eT*eG*eA*eA*eA*eA*dG*dG*dC*dC*dT*dT*dC*dC*e[5mC]*e[5mC]*eT*e[5mC]*eA*e[5mC]) [ISIS 16502]” was tested, and the “% mRNA EXPRESSION” value (human p38α mRNA [2]; [3]) was 79% and the “% mRNA Inhibition” value (human p38α mRNA [2]; [3]) was 21%.
In the case of “TGGCAGCAAAGTGCTGCTGG (eT*eG*eG*e[5mC]*eA*eG*dC*dA*dA*dA*dG*dT*dG*dC*eT*eG*e[5mC]*eT*eG*eG; antisense) [ISIS 16488]”, the “% mRNA EXPRESSION” value (human p38α mRNA [2]; [3]) is reported as 157%.
With “TGTGCCGAATCTCGGCCTCT (antisense eT*eG*eT*eG*e[5mC]*e[5mC]*dG*dA*dA*dT*dC*dT*dC*dG*eG*e[5mC]*e[5mC]*eT*e[5mC]*eT) [ISIS 16490]” the “% mRNA EXPRESSION” value (human p38α mRNA [2]; [3]) was 152%, the “% mRNA Inhibition” value (human p38α mRNA [2]; [3]) was “no inhibition” and the “% mRNA EXPRESSION” value (human p38α mRNA [2]; Jurkat cells, dose 2.5 nM) was 112%. For the same sequence, the “% mRNA EXPRESSION” value (human p38α mRNA [2]; Jurkat cells, dose 5 nM) was 109%, the “% mRNA EXPRESSION” value (human p38α mRNA [2]; Jurkat cells, dose 10 nM) was 104% and the “% mRNA EXPRESSION” value (human p38α mRNA [2]; Jurkat cells, dose 20 nM) was 97%. For the same sequence, the “% mRNA Inhibition” value (human p38α mRNA [2]; Jurkat cells, dose 20 nM) was 3%.
In the case of “TTTAGGTCCCTGTGAATTAT (eT*eT*eT*eA*eG*eG*dT*dC*dC*dC*dT*dG*dT*dG*eA*eA*eT*eT*eA*eT; antisense) [ISIS 16497]”, the “% mRNA EXPRESSION” value (human p38α mRNA [2]; [3]) is reported as 104%.
